Reference: patent US9976141B2, “Compositions and methods for inhibiting gene expression of Hif2alpha” (Arrowhead Madison Inc., priority 2015, dated 2018)
Strand notation (5' to 3'): a small letter for the sugar, then the base; units joined by * are phosphorothioate-linked, units joined directly phosphodiester-linked; [ ] holds rarer units or linkages, { } end groups; capitals alone tell only the bases. d = 2'-deoxy (DNA); m = 2'-O-methyl; f = 2'-fluoro

Tested on: human EPAS1 (Hif2α) cDNA in psiCHECK2 (Renilla luciferase/EPAS1 fusion mRNA) in Hep3B cells
Test: Efficacy screen of Hif2α RNAi triggers in vitro, dual-luciferase reporter assay (1 nM and 0.1 nM)
Format: cell-based
Conditions: Hep3B cells co-transfected with EPAS1-psiCHECK2, Renilla luciferase normalized to firefly luciferase
Description: Candidate sequences were identified by in silico analysis and screened as chemically modified canonical siRNAs in vitro. For screening purposes, the human EPAS1 (Hif2α) cDNA sequence (accession #NM 001430) was synthesized and cloned (DNA 2.0, Menlo Park, Calif.) into a commercially-available reporter-based screening plasmid, psiCHECK2 (Promega, Madison, Wis.) which generated a Renilla luciferase/EPAS1 fusion mRNA. For RNAi trigger efficacy evaluation, Hep3B cells, a human hepatocellular carcinoma line, were plated at 10,000 cells per well in 96-well format. Each of the 187 EPAS1 RNAi triggers, in two subsets, was co-transfected at two concentrations, 1 nM and 0.1 nM, with 25 ng EPAS1-psiCHECK2 plasmid DNA per well and 0.2 μL LipoFectamine 2000 (Life Technologies) per well. Gene knockdown was determined by measuring Renilla luciferase levels normalized to the levels of constitutively-expressed firefly luciferase, also present on the psiCHECK-2 plasmid, using the Dual Luciferase Reporter Assay (Promega, Madison, Wis.) Table 5.

Substance | Relative Rluc-Hif2α (0.1 nM RNAi trigger) | Relative Rluc-Hif2α (1 nM RNAi trigger)
2264 (sense fCmAfGmAfAmCfUmGfAmUfUmGfGmUfUmAfCmCfAdT; antisense dTfGmGfUmAfAmCfCmAfAmUfCmAfGmUfUmCfUmGdT*dT; siRNA) [compound 2264] | 0.381 ± 0.023 | 0.183 ± 0.019
2265 (sense fAmGfAmAfCmUfGmAfUmUfGmGfUmUfAmCfCmAfAdT; antisense dTfUmGfGmUfAmAfCmCfAmAfUmCfAmGfUmUfCmUdT*dT; siRNA) [compound 2265] | 0.448 ± 0.042 | 0.186 ± 0.045
2266 (sense fCmUfGmAfUmUfGmGfUmUfAmCfCmAfCmCfCmUfAdT; antisense dTfAmGfGmGfUmGfGmUfAmAfCmCfAmAfUmCfAmGdT*dT; siRNA) [compound 2266] | 0.808 ± 0.062 | 0.368 ± 0.046
2267 (sense fUmUfGmGfCmCfGmCfUmCfAmGfCmCfUmAfUmGfAdT; antisense dTfCmAfUmAfGmGfCmUfGmAfGmCfGmGfCmCfAmAdT*dT; siRNA) [compound 2267] | 1.029 ± 0.104 | 0.651 ± 0.049
2268 (sense fUmAfUmGfAmAfUmUfCmUfAmCfCmAfUmGfCmGfAdT; antisense dTfCmGfCmAfUmGfGmUfAmGfAmAfUmUfCmAfUmAdT*dT; siRNA) [compound 2268] | 0.409 ± 0.023 | 0.210 ± 0.037
2269 (sense fAmUfGmAfAmUfUmCfUmAfCmCfAmUfGmCfGmCfAdT; antisense dTfGmCfGmCfAmUfGmGfUmAfGmAfAmUfUmCfAmUdT*dT; siRNA) [compound 2269] | 0.530 ± 0.097 | 0.302 ± 0.080
2270 (sense fUmGfAmAfUmUfCmUfAmCfCmAfUmGfCmGfCmUfAdT; antisense dTfAmGfCmGfCmAfUmGfGmUfAmGfAmAfUmUfCmAdT*dT; siRNA) [compound 2270] | 0.658 ± 0.149 | 0.613 ± 0.147
2271 (sense fGmAfAmUfUmCfUmAfCmCfAmUfGmCfGmCfUmAfAdT; antisense dTfUmAfGmCfGmCfAmUfGmGfUmAfGmAfAmUfUmCdT*dT; siRNA) [compound 2271] | 1.056 ± 0.291 | 0.930 ± 0.094
2272 (sense fAmAfUmUfCmUfAmCfCmAfUmGfCmGfCmUfAmGfAdT; antisense dTfCmUfAmGfCmGfCmAfUmGfGmUfAmGfAmAfUmUdT*dT; siRNA) [compound 2272] | 1.028 ± 0.281 | 0.864 ± 0.197
2273 (sense fUmCfUmAfCmCfAmUfGmCfGmCfUmAfGmAfCmUfAdT; antisense dTfAmGfUmCfUmAfGmCfGmCfAmUfGmGfUmAfGmAdT*dT; siRNA) [compound 2273] | 0.574 ± 0.033 | 0.588 ± 0.057
2274 (sense fAmUfGmCfGmCfUmAfGmAfCmUfCmCfGmAfGmAfAdT; antisense dTfUmCfUmCfGmGfAmGfUmCfUmAfGmCfGmCfAmUdT*dT; siRNA) [compound 2274] | 0.870 ± 0.108 | 0.506 ± 0.074
2275 (sense fUmGfCmGfCmUfAmGfAmCfUmCfCmGfAmGfAmAfAdT; antisense dTfUmUfCmUfCmGfGmAfGmUfCmUfAmGfCmGfCmAdT*dT; siRNA) [compound 2275] | 0.515 ± 0.264 | 0.464 ± 0.048
2276 (sense fGmUfAmAfGmUfGmGfCmCfAmGfUmAfCmCfGmGfAdT; antisense dTfCmCfGmGfUmAfCmUfGmGfCmCfAmCfUmUfAmCdT*dT; siRNA) [compound 2276] | 0.543 ± 0.029 | 0.330 ± 0.080
2277 (sense fUmAfAmGfUmGfGmCfCmAfGmUfAmCfCmGfGmAfAdT; antisense dTfUmCfCmGfGmUfAmCfUmGfGmCfCmAfCmUfUmAdT*dT; siRNA) [compound 2277] | 0.625 ± 0.384 | 0.702 ± 0.091
2278 (sense fCmCfAmGfUmAfCmCfGmGfAmUfGmCfUmCfGmCfAdT; antisense dTfGmCfGmAfGmCfAmUfCmCfGmGfUmAfCmUfGmGdT*dT; siRNA) [compound 2278] | 0.947 ± 0.044 | 0.564 ± 0.070
2279 (sense fAmGfUmAfCmCfGmGfAmUfGmCfUmCfGmCfAmAfAdT; antisense dTfUmUfGmCfGmAfGmCfAmUfCmCfGmGfUmAfCmUdT*dT; siRNA) [compound 2279] | 0.506 ± 0.086 | 0.280 ± 0.042
2280 (sense fUmAfCmCfGmGfAmUfGmCfUmCfGmCfAmAfAmGfAdT; antisense dTfCmUfUmUfGmCfGmAfGmCfAmUfCmCfGmGfUmAdT*dT; siRNA) [compound 2280] | 0.871 ± 0.147 | 0.911 ± 0.086

Substance | Relative Rluc-Hif2α (0.1 nM RNAi trigger) | Relative Rluc-Hif2α (1 nM RNAi trigger)
2281 (sense fUmGfCmUfCmGfCmAfAmAfGmCfAmUfGmGfGmGfAdT; antisense dTfCmCfCmCfAmUfGmCfUmUfUmGfCmGfAmGfCmAdT*dT; siRNA) [compound 2281] | 0.914 ± 0.177 | 0.651 ± 0.041
2282 (sense fCmGfCmAfAmAfGmCfAmUfGmGfGmGfGmCfUmAfAdT; antisense dTfUmAfGmCfCmCfCmCfAmUfGmCfUmUfUmGfCmGdT*dT; siRNA) [compound 2282] | 1.209 ± 0.132 | 0.824 ± 0.155
2283 (sense fAmGfCmAfUmGfGmGfGmGfCmUfAmCfGmUfGmUfAdT; antisense dTfAmCfAmCfGmUfAmGfCmCfCmCfCmAfUmGfCmUdT*dT; siRNA) [compound 2283] | 1.175 ± 0.194 | 0.882 ± 0.026
2284 (sense fGmCfAmUfGmGfGmGfGmCfUmAfCmGfUmGfUmGfAdT; antisense dTfCmAfCmAfCmGfUmAfGmCfCmCfCmCfAmUfGmCdT*dT; siRNA) [compound 2284] | 1.227 ± 0.266 | 0.787 ± 0.062
2285 (sense fCmAfUmCfUmAfCmAfAmCfCmCfUmCfGmCfAmAfAdT; antisense dTfUmUfGmCfGmAfGmGfGmUfUmGfUmAfGmAfUmGdT*dT; siRNA) [compound 2285] | 1.109 ± 0.247 | 0.723 ± 0.088
2286 (sense fAmUfCmUfAmCfAmAfCmCfCmUfCmGfCmAfAmCfAdT; antisense dTfGmUfUmGfCmGfAmGfGmGfUmUfGmUfAmGfAmUdT*dT; siRNA) [compound 2286] | 1.291 ± 0.367 | 0.878 ± 0.078
2287 (sense fCmUfAmCfAmAfCmCfCmUfCmGfCmAfAmCfCmUfAdT; antisense dTfAmGfGmUfUmGfCmGfAmGfGmGfUmUfGmUfAmGdT*dT; siRNA) [compound 2287] | 0.871 ± 0.102 | 0.751 ± 0.011
2288 (sense fUmAfCmAfAmCfCmCfUmCfGmCfAmAfCmCfUmGfAdT; antisense dTfCmAfGmGfUmUfGmCfGmAfGmGfGmUfUmGfUmAdT*dT; siRNA) [compound 2288] | 0.943 ± 0.029 | 0.932 ± 0.118
2289 (sense fUmUfUmGfAmUfAmGfCmAfGmUfGmGfCmAfAmGfAdT; antisense dTfCmUfUmGfCmCfAmCfUmGfCmUfAmUfCmAfAmAdT*dT; siRNA) [compound 2289] | 0.992 ± 0.153 | 1.039 ± 0.146
2290 (sense fAmGfUmAfAmCfUmUfCmCfUmAfUmUfCmAfCmCfAdT; antisense dTfGmGfUmGfAmAfUmAfGmGfAmAfGmUfUmAfCmUdT*dT; siRNA) [compound 2290] | 0.698 ± 0.155 | 0.353 ± 0.036
2291 (sense fUmCfGmGfGmAfAmUfCmAfGmAfAmCfUmUfCmGfAdT; antisense dTfCmGfAmAfGmUfUmCfUmGfAmUfUmCfCmCfGmAdT*dT; siRNA) [compound 2291] | 0.911 ± 0.092 | 0.434 ± 0.046
2292 (sense fCmUfGmCfUmCfCmAfCmGfCmCfCmAfAmUfAmGfAdT; antisense dTfCmUfAmUfUmGfGmGfCmGfUmGfGmAfGmCfAmGdT*dT; siRNA) [compound 2292] | 1.135 ± 0.048 | 0.832 ± 0.000
2293 (sense fUmGfCmUfCmCfAmCfGmCfCmCfAmAfUmAfGmCfAdT; antisense dTfGmCfUmAfUmUfGmGfGmCfGmUfGmGfAmGfCmAdT*dT; siRNA) [compound 2293] | 1.010 ± 0.045 | 0.925 ± 0.126
2294 (sense fGmCfUmCfCmAfCmGfCmCfCmAfAmUfAmGfCmCfAdT; antisense dTfGmGfCmUfAmUfUmGfGmGfCmGfUmGfGmAfGmCdT*dT; siRNA) [compound 2294] | 0.743 ± 0.100 | 0.546 ± 0.033
2295 (sense fAmCfGmCfCmCfAmAfUmAfGmCfCmCfUmGfAmAfAdT; antisense dTfUmUfCmAfGmGfGmCfUmAfUmUfGmGfGmCfGmUdT*dT; siRNA) [compound 2295] | 1.047 ± 0.184 | 0.863 ± 0.122
2296 (sense fCmAfUmCfUmUfUmGfGmAfUmAfAmCfGmAfCmCfAdT; antisense dTfGmGfUmCfGmUfUmAfUmCfCmAfAmAfGmAfUmGdT*dT; siRNA) [compound 2296] | 0.411 ± 0.079 | 0.213 ± 0.028
